Each structure is given as a SMILES string. Read-outs that look alike come from different tables or passages of the source.

These results are taken from PMC5522050, “Sulfatinib, a novel kinase inhibitor, in patients with advanced solid tumors: results from a phase I study” (Oncotarget, 2017).

The target of data set [1] is CSF1R (Homo sapiens, UniProt P07333). As to the kind of experiment: kinase selectivity profile. The format is biochemical. From the text:
(§1) Table 1 Sulfatinib kinase selectivity profile | column: IC50 (μM)

Data set [2] concerns the target FGFR1 (Homo sapiens, UniProt P11362). As to the kind of experiment: kinase selectivity profile. The format is biochemical.
Source text: as §1

Data set [3] addresses T1, FLT3 (Homo sapiens, UniProt P36888).
T1 sequence (P36888 27-993): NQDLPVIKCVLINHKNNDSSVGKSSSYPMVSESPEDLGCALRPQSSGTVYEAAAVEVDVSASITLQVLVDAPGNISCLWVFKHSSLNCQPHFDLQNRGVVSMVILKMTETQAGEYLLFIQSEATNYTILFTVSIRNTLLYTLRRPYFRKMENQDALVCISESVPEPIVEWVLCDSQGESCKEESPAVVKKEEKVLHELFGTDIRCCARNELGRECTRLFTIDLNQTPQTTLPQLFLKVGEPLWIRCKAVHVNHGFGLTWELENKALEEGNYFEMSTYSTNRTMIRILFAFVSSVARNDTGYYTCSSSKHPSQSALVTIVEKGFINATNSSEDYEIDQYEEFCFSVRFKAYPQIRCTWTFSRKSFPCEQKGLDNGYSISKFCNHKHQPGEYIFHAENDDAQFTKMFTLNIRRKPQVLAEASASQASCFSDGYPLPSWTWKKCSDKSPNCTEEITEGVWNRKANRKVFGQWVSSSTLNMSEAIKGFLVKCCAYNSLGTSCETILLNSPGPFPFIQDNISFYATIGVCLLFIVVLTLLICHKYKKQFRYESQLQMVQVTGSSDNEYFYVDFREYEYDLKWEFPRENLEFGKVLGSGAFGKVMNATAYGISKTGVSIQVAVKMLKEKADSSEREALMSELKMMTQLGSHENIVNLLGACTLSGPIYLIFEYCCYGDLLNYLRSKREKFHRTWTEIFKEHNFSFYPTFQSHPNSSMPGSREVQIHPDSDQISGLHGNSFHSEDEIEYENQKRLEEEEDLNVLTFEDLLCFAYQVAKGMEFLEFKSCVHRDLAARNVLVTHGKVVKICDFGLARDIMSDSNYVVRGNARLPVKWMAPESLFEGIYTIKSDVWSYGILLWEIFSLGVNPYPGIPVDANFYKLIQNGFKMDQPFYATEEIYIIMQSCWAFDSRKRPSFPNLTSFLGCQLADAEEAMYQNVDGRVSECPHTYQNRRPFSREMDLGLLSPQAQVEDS
Briefly: kinase selectivity profile. The format is biochemical.
Source text: as §1

Data set [4] concerns the target TrkB (Homo sapiens, UniProt Q16620). Briefly: kinase selectivity profile. It counts as biochemical.
Source text: as §1

Data set [5] deals with VEGFR 1 (Homo sapiens, UniProt P17948). As to the kind of experiment: kinase selectivity profile. It counts as biochemical.
Source text: as §1

In data set [6] the target is VEGFR 2 (Homo sapiens, UniProt P35968). As to the kind of experiment: kinase selectivity profile. It counts as biochemical.
Source text: as §1

Data set [7] has as its target VEGFR 3 (Homo sapiens, UniProt P35916). As to the kind of experiment: kinase selectivity profile. The format is biochemical.
Source text: as §1

The target in data set [8] is 278 other kinases. Briefly: kinase selectivity profile (broad kinase screening). The format is biochemical.
Source text: as §1

For data set [9], the system named is patients with advanced solid tumors. As to the kind of experiment: phase I safety and tolerability (AEs, DLTs, MTD). It counts as in vivo. The following applies: doses of 50-350 mg QD and 125-150 mg BID; up to 350 mg QD (formulation 2). From the text:
The primary objectives of this open-label, first-in-human phase I study (NCT02133157) were to determine MTD and the phase II dose of sulfatinib, and to evaluate the safety of sulfatinib in patients with advanced solid tumors. The secondary and exploratory objectives included evaluation of sulfatinib PK and preliminary anti-tumor activity. The study consisted of a dose-escalation phase (split into a single-dose period and continuous-dose period) and a tumor-specific expansion phase. Two sulfatinib formulations were used during the study: formulation 1 (5, 25, and 50 mg capsules) and formulation 2 (50 and 200 mg capsules). […]
During the dose-escalation phase, patients were given a single dose of sulfatinib and monitored for AEs for seven days. […] DLTs were assessed at the end of the 28-day period. […]
The study used a modified Fibonacci 3+3 dose-escalation design with at least three evaluable patients treated with each dose. […] If two or more of the first three or overall six patients experienced a DLT, the MTD was considered exceeded and the previous lower dose would be re-assessed to determine the MTD. […]
Safety and tolerability were assessed in all patients who received at least one dose of sulfatinib throughout the study. AEs were recorded throughout the study. […]

The subject of data set [10] is advanced solid tumors. As to the kind of experiment: tumor response by RECIST Version 1.0. It counts as in vivo, human. As for the experimental part:
Patients with NETs were enrolled with priority as preliminary efficacy was shown in these tumor types in the dose-escalation stage. Tumor response (an exploratory endpoint) was assessed according to RECIST Version 1.0 and measured at baseline, at the end of every treatment cycle in the first four cycles, and every other cycle thereafter. […] Calculations of the following parameters were made: ORR (CR + PR); SD defined as ≥1 assessment of SD at least six weeks after study entry; DCR (CR + PR + SD). TTR, DoR and PFS were analyzed in the subgroup of patients with NET.

Data set [11] has as its system pancreatic NET patients. On the set-up: method as in PMID 21306238. Particulars: phase III trial; cited from earlier work.
Data set [12] relates to GI and lung NET patients. On the set-up: method as in PMID 26703889. The following applies: phase III trial; cited from earlier work.
Data set [13] relates to pancreatic NET patients. Further details: method as in PMID 21306237. Particulars: phase III trial; cited from earlier work.
Setting [14] is: three NET patients who progressed on prior VEGFR kinase inhibitors.

Chain of VEGFR 1 (P17948 27-1338): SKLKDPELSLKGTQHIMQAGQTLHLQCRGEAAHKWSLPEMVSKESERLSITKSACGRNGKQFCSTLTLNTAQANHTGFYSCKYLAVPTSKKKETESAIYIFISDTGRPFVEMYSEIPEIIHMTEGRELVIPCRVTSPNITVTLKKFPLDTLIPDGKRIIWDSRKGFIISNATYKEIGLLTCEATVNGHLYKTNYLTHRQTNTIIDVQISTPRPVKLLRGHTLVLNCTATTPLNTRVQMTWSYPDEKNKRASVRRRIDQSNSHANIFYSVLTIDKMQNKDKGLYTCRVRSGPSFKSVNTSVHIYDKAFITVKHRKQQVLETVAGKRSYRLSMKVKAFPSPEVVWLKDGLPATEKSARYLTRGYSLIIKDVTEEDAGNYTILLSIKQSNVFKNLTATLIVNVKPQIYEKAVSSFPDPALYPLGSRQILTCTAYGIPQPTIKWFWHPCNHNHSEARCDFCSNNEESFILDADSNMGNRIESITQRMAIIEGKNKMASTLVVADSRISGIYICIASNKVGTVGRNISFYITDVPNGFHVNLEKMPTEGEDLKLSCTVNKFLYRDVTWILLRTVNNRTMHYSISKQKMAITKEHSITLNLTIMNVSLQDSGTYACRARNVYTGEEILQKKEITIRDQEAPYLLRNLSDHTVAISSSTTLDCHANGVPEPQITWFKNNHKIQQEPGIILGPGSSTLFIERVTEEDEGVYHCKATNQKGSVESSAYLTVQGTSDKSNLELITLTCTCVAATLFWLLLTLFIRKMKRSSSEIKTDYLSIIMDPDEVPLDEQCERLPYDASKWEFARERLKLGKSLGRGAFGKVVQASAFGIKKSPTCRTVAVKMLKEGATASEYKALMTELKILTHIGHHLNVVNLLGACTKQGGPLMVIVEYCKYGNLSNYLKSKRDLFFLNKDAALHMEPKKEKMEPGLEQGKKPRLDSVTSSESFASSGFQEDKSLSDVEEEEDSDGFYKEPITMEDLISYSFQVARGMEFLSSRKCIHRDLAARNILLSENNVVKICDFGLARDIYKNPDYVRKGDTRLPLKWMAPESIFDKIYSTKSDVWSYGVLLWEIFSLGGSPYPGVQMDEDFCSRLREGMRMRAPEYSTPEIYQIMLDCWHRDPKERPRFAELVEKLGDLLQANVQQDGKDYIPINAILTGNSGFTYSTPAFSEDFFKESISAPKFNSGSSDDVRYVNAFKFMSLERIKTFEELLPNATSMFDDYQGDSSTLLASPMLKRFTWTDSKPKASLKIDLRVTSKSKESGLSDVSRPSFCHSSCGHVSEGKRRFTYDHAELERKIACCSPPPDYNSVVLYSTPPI
Chain of VEGFR 3 (P35916 25-1363): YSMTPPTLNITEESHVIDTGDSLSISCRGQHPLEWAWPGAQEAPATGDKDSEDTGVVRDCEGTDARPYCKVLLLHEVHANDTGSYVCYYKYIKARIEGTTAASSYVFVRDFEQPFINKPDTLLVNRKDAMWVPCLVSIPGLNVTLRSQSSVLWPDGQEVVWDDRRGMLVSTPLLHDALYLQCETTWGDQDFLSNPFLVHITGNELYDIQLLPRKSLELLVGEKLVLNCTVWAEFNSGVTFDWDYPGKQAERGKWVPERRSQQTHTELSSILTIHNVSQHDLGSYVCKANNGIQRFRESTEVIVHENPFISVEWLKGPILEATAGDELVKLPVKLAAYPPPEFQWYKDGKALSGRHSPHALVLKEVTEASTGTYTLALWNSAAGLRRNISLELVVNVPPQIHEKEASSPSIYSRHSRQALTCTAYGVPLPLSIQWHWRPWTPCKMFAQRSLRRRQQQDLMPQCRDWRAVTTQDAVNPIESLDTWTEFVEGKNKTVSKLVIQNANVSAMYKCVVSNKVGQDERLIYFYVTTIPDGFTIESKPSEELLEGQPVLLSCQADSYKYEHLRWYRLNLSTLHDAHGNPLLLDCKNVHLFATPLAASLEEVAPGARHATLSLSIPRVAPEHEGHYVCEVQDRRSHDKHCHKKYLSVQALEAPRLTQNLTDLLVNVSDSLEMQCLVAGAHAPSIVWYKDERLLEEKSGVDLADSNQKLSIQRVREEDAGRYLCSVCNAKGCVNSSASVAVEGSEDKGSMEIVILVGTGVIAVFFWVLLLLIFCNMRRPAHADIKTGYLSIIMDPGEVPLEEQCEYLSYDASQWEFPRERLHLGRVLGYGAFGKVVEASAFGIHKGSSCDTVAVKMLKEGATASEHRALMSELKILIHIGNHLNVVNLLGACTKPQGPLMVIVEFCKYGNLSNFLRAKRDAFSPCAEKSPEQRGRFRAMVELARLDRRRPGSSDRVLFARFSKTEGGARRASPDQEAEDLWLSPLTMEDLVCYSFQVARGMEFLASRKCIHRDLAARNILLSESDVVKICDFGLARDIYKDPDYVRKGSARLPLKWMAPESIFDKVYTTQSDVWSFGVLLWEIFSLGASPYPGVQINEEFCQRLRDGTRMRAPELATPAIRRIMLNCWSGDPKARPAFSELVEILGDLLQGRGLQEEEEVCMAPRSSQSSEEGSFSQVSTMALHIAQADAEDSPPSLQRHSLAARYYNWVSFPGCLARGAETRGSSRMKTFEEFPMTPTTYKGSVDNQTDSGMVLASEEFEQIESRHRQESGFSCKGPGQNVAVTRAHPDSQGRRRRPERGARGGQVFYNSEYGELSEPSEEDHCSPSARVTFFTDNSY
Chain of FGFR1 (P11362 22-822): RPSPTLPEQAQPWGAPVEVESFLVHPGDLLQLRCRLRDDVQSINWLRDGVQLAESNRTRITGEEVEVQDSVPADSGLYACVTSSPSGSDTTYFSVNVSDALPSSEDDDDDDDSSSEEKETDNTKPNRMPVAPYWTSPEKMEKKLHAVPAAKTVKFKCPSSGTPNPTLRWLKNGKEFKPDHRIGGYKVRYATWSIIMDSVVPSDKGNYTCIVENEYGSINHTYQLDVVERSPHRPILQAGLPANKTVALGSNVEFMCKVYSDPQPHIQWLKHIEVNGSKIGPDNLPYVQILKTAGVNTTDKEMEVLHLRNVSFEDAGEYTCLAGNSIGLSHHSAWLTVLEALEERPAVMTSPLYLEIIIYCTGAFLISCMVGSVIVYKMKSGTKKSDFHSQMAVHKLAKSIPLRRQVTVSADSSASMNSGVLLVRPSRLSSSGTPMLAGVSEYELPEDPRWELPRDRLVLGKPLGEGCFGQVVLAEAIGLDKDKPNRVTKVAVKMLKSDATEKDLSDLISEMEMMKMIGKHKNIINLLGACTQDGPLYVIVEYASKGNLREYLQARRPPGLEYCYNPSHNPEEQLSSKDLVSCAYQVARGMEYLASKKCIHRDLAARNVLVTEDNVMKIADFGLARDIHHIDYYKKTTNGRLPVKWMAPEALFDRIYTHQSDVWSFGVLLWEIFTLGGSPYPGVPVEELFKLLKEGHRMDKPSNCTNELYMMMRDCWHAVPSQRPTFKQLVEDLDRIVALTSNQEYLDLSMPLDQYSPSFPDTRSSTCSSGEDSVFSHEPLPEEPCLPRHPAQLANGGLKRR
Chain of VEGFR 2 (P35968 20-1356): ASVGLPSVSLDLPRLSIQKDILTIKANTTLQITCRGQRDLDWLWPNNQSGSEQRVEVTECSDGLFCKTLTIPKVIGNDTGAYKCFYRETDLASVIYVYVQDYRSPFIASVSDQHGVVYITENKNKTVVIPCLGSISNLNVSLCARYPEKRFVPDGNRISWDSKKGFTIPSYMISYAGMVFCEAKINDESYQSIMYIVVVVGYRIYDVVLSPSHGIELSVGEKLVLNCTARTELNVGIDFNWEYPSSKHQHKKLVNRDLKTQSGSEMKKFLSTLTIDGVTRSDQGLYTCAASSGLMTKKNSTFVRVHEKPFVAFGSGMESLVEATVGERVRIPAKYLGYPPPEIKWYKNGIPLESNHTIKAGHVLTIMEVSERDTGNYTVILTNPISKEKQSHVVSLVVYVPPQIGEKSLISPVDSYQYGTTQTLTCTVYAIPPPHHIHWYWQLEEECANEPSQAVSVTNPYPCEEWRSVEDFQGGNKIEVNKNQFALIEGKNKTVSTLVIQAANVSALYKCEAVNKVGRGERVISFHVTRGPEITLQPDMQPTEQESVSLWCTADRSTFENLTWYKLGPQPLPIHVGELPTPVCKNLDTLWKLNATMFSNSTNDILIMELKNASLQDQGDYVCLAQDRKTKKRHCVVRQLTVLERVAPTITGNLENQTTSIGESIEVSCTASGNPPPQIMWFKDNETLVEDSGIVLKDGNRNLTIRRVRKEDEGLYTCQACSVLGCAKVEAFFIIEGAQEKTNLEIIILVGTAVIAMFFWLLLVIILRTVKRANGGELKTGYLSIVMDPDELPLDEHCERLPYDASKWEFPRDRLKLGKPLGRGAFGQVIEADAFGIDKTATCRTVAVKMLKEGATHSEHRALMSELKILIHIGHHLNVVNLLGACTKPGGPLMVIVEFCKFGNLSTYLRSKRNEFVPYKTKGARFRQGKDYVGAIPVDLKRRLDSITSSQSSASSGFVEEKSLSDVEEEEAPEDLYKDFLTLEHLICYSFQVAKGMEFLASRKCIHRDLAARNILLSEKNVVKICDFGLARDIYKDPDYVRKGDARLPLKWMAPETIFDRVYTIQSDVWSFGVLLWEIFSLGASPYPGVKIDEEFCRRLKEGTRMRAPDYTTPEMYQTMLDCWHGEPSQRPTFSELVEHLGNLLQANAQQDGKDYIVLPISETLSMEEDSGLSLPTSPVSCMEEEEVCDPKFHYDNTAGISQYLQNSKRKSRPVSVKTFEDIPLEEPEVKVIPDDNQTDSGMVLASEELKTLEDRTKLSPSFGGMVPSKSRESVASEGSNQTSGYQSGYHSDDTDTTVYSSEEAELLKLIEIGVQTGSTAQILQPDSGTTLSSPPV

In the case of `Cc1cc2cc(Oc3ccnc(Nc4cccc(CS(=O)(=O)NCCN(C)C)c4)n3)ccc2[nH]1` [Sulfatinib], the IC50 in data set [1] worked out at 4 nM; in data set [2] it was 15 nM; in [3], 67 nM; in [4], 41 nM; in data set [5], 2 nM; in data set [6], 24 nM. For the same compound, the IC50 is 1 nM in data set [7] and over 150 nM in [8]. In addition, the “maximum tolerated dose (MTD)” value in data set [9] is on record as “not reached”. Also, in data set [10] (all 77 patients), the “patients with confirmed PR” value was “Nine”. In addition, in data set [10] (all 77 patients), the “patients with sustainable SD” value is on record as 23. The “objective response rate (ORR)” value in data set [10] (all 77 patients (9/77)) is recorded as 11.7%. Also, the “disease control rate (DCR)” value in data set [10] (all 77 patients (32/77)) was 41.6%. Further, the “patients achieving PR” value in [10] (setting [14]) is “one”. For the same compound, in [10] (setting [14]), the “patients achieving SD” value is “two”.

With `CO[C@H]1C[C@@H]2CC[C@@H](C)[C@@](O)(O2)C(=O)C(=O)N2CCCC[C@H]2C(=O)O[C@H]([C@H](C)C[C@@H]2CC[C@@H](OCCO)[C@H](OC)C2)CC(=O)[C@H](C)/C=C(\C)[C@@H](O)[C@@H](OC)C(=O)[C@H](C)C[C@H](C)/C=C/C=C/C=C/1C` [everolimus], in data set [11], the ORR is on record as 5% and the “median PFS” value was 11.0 months. Moreover, in [12], the ORR is given as 2% and the “median PFS” value is reported as 11.0 months.

`CCN(CC)CCNC(=O)c1c(C)[nH]c(/C=C2\C(=O)Nc3ccc(F)cc32)c1C` [sunitinib]: in data set [13], the ORR is on record as 9.3% and the PFS is 11.0 months.
